{"source": "patent US20200261391A1", "about": "“METHODS OF REDUCING THE RISK OF A CARDIOVASCULAR EVENT IN A STATIN-TREATED SUBJECT BY INCREASING SERUM AND PLASMA EPA AND DPA LEVELS” (Amarin Pharmaceuticals Ireland Limited, priority 2019, published 2020)", "assay_type_in_all_cases": "in vivo, human", "key": {"[1]": {"experiment": "REDUCE-IT change from baseline blood pressure (mixed effects model)", "details": "ITT", "procedure": "Blood pressure was measured using a standardized process: • Patient sat for ≥5 minutes with feet flat on the floor and measurement arm supported so that the midpoint of the manometer cuff was at heart level; and • Used a mercury sphygmomanometer or automatic blood pressure device with an appropriately sized cuff with the bladder centered over the brachial artery.\nBlood pressure was recorded to the nearest 2 mmHg mark on the manometer or to the nearest whole number on an automatic device. A blood pressure reading was repeated 1 to 2 minutes later, and the second reading recorded to the nearest 2 mmHg mark.\nIt is contemplated that a number of factors contribute to the significant reduction in the cardiovascular risk. Without intending to be bound by any particular theory, one of the contributing factors might relate to the dose and formulation of the icosapent ethyl administered to the patients, in marked contrast to previous studies of omega-3 fatty acid studies. An additional contributing factor could relate to the patients' blood pressure. […] These differences appear to be modest, but it is contemplated, that they might contribute to the benefits of icosapent ethyl. […]"}, "[2]": {"test_system": "patients with elevated triglyceride levels on statin therapy", "experiment": "REDUCE-IT endpoints by pooled (icosapent ethyl and placebo) EPA blood level tertile", "details": "icosapent ethyl and placebo pooled", "description": "(§1) The objective of this study is to assess the effects of administering icosapent ethyl at 4 g per day to patients from the REDUCE-IT trial of Example 1. More specifically, patients from the REDUCE-IT trial of Example 1 were stratified by their EPA levels into one of three tertiles. Following stratification, the objective was to determine if the RRR differs between patients having EPA levels in the three different tertiles. For the data collected as shown in Tables 38-43 and FIGS. 52, 53, and 56-59, the tertiles were established based on data collected from subjects at 1 year, 2 years, and last visit following icosapent ethyl administration compared to placebo. Data are presented as an average of 1 year, 2 year, […], and end of study values. The data was further analyzed use both pooled and unpooled statistically methods.\n(0.84 for lowest vs. placebo, 0.72 for middle vs. placebo, and 0.65 for highest vs. placebo)."}, "[3]": {"test_system": "patients with elevated triglyceride levels on statin therapy", "experiment": "REDUCE-IT endpoints by EPA blood level tertile in the icosapent ethyl group compared to placebo", "procedure": "To assess the relationship between on-treatment hsCRP and the primary and key secondary endpoints, subgroup analyses were carried out as done for the ITT population for patients grouped according to values greater or equal to or less than […] at baseline and at 2 years. To assess the relationship between on-treatment serum EPA and the primary and key secondary endpoints, Kaplan-Meier (KM) curves were produced for AMR101 treated patients grouped into tertiles based on their values at year 1 and were compared with the placebo-treated patients.\n(§2) This is a study aimed towards determining a relative risk reduction (RRR) between subjects stratified by EPA tertiles in the REDUCE-IT clinical trial described above in Example 1. Samples were obtained from those subjects and total EPA and AA levels in human serum and plasma samples were determined according at least to the methods described in Example 7.\nas §1"}, "[4]": {"test_system": "patients with elevated triglyceride levels on statin therapy", "experiment": "REDUCE-IT endpoints by EPA/AA ratio tertile in the icosapent ethyl group compared to placebo", "procedure": "as §2, §1"}, "[5]": {"details": "highest >118.1 μg/mL vs lowest ≤31.305 μg/mL"}, "[6]": {"details": "highest >118.1 μg/mL vs middle >31.305 to ≤118.1 μg/mL"}, "[7]": {"details": "middle >31.305 to ≤118.1 μg/mL vs lowest ≤31.305 μg/mL"}, "[8]": {"details": "EPA >189 μg/mL, on-treatment average of year 1, year 2, last visit"}, "[9]": {"details": "EPA >114.7 to ≤189 μg/mL, on-treatment average of year 1, year 2, last visit"}, "[10]": {"details": "EPA ≤114.7 μg/mL, on-treatment average of year 1, year 2, last visit"}, "[11]": {"details": "EPA/AA >0.373068 to ≤0.727974, on-treatment average"}, "[12]": {"details": "EPA/AA >0.727974, on-treatment average"}}, "note": "Several values for one entry are separate records, joined by “and”; a condition that tells them apart may be missing. Equal values may be shown once.", "data": [{"smiles": "CC/C=C\\C/C=C\\C/C=C\\C/C=C\\C/C=C\\CCCC(=O)OCC", "note": "[icosapent ethyl, eicosapentaenoic acid ethyl ester]", "values": [{"measurement": "diastolic blood pressure, average placebo-corrected reduction from baseline", "setting": "[1]", "result": 0.5, "unit": "mm Hg"}, {"measurement": "systolic blood pressure, average placebo-corrected reduction from baseline", "setting": "[1]", "result": 1.3, "unit": "mm Hg"}, {"measurement": "HR (95% CI), Key Secondary Endpoint, pooled EPA tertiles, Highest vs Lowest", "setting": "[2]; [5]", "result": "0.61 (0.51, 0.71)"}, {"measurement": "HR (95% CI), Primary Endpoint, pooled EPA tertiles, Highest vs Lowest", "setting": "[2]; [5]", "result": "0.65 (0.57, 0.74)"}, {"measurement": "HR (95% CI), Key Secondary Endpoint, pooled EPA tertiles, Highest vs Middle", "setting": "[2]; [6]", "result": "0.78 (0.65, 0.92)"}, {"measurement": "HR (95% CI), Primary Endpoint, pooled EPA tertiles, Highest vs Middle", "setting": "[2]; [6]", "result": "0.80 (0.70, 0.92)"}, {"measurement": "HR (95% CI), Key Secondary Endpoint, pooled EPA tertiles, Middle vs Lowest", "setting": "[2]; [7]", "result": "0.78 (0.67, 0.91)"}, {"measurement": "HR (95% CI), Primary Endpoint, pooled EPA tertiles, Middle vs Lowest", "setting": "[2]; [7]", "result": "0.81 (0.71, 0.92)"}, {"measurement": "key secondary endpoint HR, highest EPA tertile vs. placebo", "setting": "[3]; EPA >189 μg/mL", "result": 0.65}, {"measurement": "primary endpoint HR, highest EPA tertile vs. placebo", "setting": "[3]; EPA >189 μg/mL", "result": 0.65}, {"measurement": "HR (95% CI), Key Secondary Endpoint, Highest EPA tertile vs Placebo", "setting": "[3]; [8]", "result": "0.65 (0.54, 0.80)"}, {"measurement": "HR (95% CI), Primary Endpoint, Highest EPA tertile vs Placebo", "setting": "[3]; [8]", "result": "0.65 (0.55, 0.76)"}, {"measurement": "key secondary endpoint HR, middle EPA tertile vs. placebo", "setting": "[3]; EPA >114.7 to ≤189 μg/mL", "result": 0.65}, {"measurement": "primary endpoint HR, middle EPA tertile vs. placebo", "setting": "[3]; EPA >114.7 to ≤189 μg/mL", "result": 0.72}, {"measurement": "HR (95% CI), Key Secondary Endpoint, Middle EPA tertile vs Placebo", "setting": "[3]; [9]", "result": "0.65 (0.53, 0.79)"}, {"measurement": "HR (95% CI), Primary Endpoint, Middle EPA tertile vs Placebo", "setting": "[3]; [9]", "result": "0.72 (0.62, 0.85)"}, {"measurement": "key secondary endpoint HR, lowest EPA tertile vs. placebo", "setting": "[3]; EPA blood level ≤114.7 μg/mL", "result": 0.89}, {"measurement": "primary endpoint HR, lowest EPA tertile vs. placebo", "setting": "[3]; EPA blood level ≤114.7 μg/mL", "result": 0.84}, {"measurement": "HR (95% CI), Key Secondary Endpoint, Lowest EPA tertile vs Placebo", "setting": "[3]; [10]", "result": "0.89 (0.74, 1.07)"}, {"measurement": "HR (95% CI), Primary Endpoint, Lowest EPA tertile vs Placebo", "setting": "[3]; [10]", "result": "0.84 (0.72, 0.98)"}, {"measurement": "primary composite endpoint HR, highest EPA tertile vs. placebo", "setting": "[3]; FIG. 53, ITT, EPA >190.55 μg/mL", "result": 0.63}, {"measurement": "primary composite endpoint HR, middle EPA tertile vs. placebo", "setting": "[3]; FIG. 53, ITT, EPA >116.9 to ≤190.55 μg/mL", "result": 0.74}, {"measurement": "primary composite endpoint HR, lowest EPA tertile vs. placebo", "setting": "[3]; FIG. 53, ITT, EPA ≤116.9 μg/mL", "result": 0.85}, {"measurement": "key secondary endpoint HR, middle EPA/AA tertile vs. placebo", "setting": "[4]; EPA/AA >0.373068 to ≤0.727974", "result": 0.61}, {"measurement": "primary endpoint HR, middle EPA/AA tertile vs. placebo", "setting": "[4]; EPA/AA >0.373068 to ≤0.727974", "result": 0.70}, {"measurement": "HR (95% CI), Key Secondary Endpoint, Middle EPA/AA ratio tertile vs Placebo", "setting": "[4]; [11]", "result": "0.61 (0.49, 0.75)"}, {"measurement": "HR (95% CI), Primary Endpoint, Middle EPA/AA ratio tertile vs Placebo", "setting": "[4]; [11]", "result": "0.70 (0.59, 0.82)"}, {"measurement": "key secondary endpoint HR, highest EPA/AA tertile vs. placebo", "setting": "[4]; EPA/AA >0.727974", "result": 0.65}, {"measurement": "primary endpoint HR, highest EPA/AA tertile vs. placebo", "setting": "[4]; EPA/AA >0.727974", "result": 0.67}, {"measurement": "HR (95% CI), Key Secondary Endpoint, Highest EPA/AA ratio tertile vs Placebo", "setting": "[4]; [12]", "result": "0.65 (0.54, 0.80)"}, {"measurement": "HR (95% CI), Primary Endpoint, Highest EPA/AA ratio tertile vs Placebo", "setting": "[4]; [12]", "result": "0.67 (0.57, 0.79)"}, {"measurement": "key secondary endpoint HR, lowest EPA/AA tertile vs. placebo", "setting": "[4]; EPA/AA ≤0.373068", "result": 0.94}, {"measurement": "primary endpoint HR, lowest EPA/AA tertile vs. placebo", "setting": "[4]; EPA/AA ≤0.373068", "result": 0.83}, {"measurement": "HR (95% CI), Key Secondary Endpoint, Lowest EPA/AA ratio tertile vs Placebo", "setting": "[4]; EPA/AA ≤0.373068, on-treatment average", "result": "0.94 (0.78, 1.13)"}, {"measurement": "primary endpoint HR, highest EPA/AA tertile vs. placebo", "setting": "[4]; FIG. 55, ITT, EPA/AA >0.7403", "result": "0.70 and 0.63"}, {"measurement": "primary endpoint HR, lowest EPA/AA tertile vs. placebo", "setting": "[4]; FIG. 55, ITT, EPA/AA ≤0.3845", "result": 0.88}]}]}
